From paper PMC7083565, “In vitro metabolism, reaction phenotyping, enzyme kinetics, CYP inhibition and induction potential of ataluren” (Pharmacology Research & Perspectives, 2020)

Molecular target: T1, CYP2C8 (Homo sapiens, UniProt P10632)
T1 construct: tissue XenoTech LLC, Celsis-In Vitro Technologies, or Tissue Transformation Technologies; host or cells: pooled human liver microsomes
T1 sequence (P10632 1-490): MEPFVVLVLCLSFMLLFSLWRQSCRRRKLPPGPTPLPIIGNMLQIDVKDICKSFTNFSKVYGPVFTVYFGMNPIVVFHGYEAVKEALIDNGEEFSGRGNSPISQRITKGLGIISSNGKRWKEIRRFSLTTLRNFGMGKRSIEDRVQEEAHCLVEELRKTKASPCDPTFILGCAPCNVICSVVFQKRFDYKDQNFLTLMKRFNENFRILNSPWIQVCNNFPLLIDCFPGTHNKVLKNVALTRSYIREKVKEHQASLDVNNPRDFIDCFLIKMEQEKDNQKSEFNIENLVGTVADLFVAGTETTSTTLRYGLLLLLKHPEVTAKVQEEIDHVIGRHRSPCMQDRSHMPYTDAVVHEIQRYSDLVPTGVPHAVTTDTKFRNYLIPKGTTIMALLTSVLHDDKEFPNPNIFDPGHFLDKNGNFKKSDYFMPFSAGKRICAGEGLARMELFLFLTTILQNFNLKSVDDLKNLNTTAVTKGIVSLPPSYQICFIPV
Experiment: CYP inhibition in pooled human liver microsomes: CYP2C8
Type: in vitro ADME
Description: The final concentration of each probe substrate was near the experimentally determined Km value for the indicated enzyme. Ataluren or prototypical CYP inhibitors (positive controls) was incubated (n = 3) with probe substrates and HLM in 100 mmol/L phosphate buffer (pH 7.4) in a total volume of approximately 0.25 mL, and the reactions were initiated by the addition of 1 mmol/L NADPH at 37°C. The reactions were carried out using previously established conditions to ensure linearity with respect to protein concentration and incubation time (Table S1). Incubations were stopped with the addition of ice‐cold acetonitrile. Metabolite formation in incubations with test compound and control inhibitors was assessed with LC‐MS/MS methods for each of the reaction products as described in Table S2. […] After 7 minutes incubation at 37°C, the reaction was stopped by the addition of ice‐cold acetonitrile, followed by membrane plate filtration. The filtrates were used for LC‐MS/MS analysis. Enzyme activity remaining at each nonzero ataluren concentration after incubation was normalized against control sample (zero ataluren concentration, enzyme activity = 100%), and the % remaining enzyme activity values were used for IC50 calculation. IC50 values were determined by nonlinear regression with GraphPad Prism 5 using the following four‐parameter sigmoidal‐logistic IC50 equation: Fit=background+range-background/[1+I/IC50^slope]
Where, I is the inhibitor concentration, and background was set to 0 and range to 100, as percent of control values are utilized. K i was determined by nonlinear regression with GraphPad Prism 5 using best fit model.

Question: How did the IC50 (Amodiaquine N-deethylase, pooled HLM, n=3, (95% confidence interval)) turn out when `O=C(O)c1cccc(-c2noc(-c3ccccc3F)n2)c1` [ataluren, Ataluren] was run?
Answer: 163 µM

Question: And the mechanism of inhibition (CYP2C8, amodiaquine N-deethylase)?
Answer: noncompetitive inhibitor

Question: And the Ki (CYP2C8, noncompetitive, mean ± SE, n = 3)?
Answer: 169 ± 6.19 µM

Question: And the IC50 (human, pooled human liver microsomes, pH 7.4, CYP2C8, HLM)?
Answer: 165 µM
